Here are results for 25 molecules from ChEMBL document CHEMBL4706531, “Discovery of Novel c-Mesenchymal-Epithelia transition factor and histone deacetylase dual inhibitors” (Eur J Med Chem, 2020).

Activity calls are given as the source filed them. The rule behind the calls is not given here.

A word on the IC50: it is the concentration needed to halve the response being measured. A high value points to weaker potency in that assay. Broadly, the inhibition is the change of the read-out against control, counted positive when it falls.

The test system of assay [1] is HCT-116. Description: cells. Conditions: Homo sapiens, HCT-116, 72 h. It counts as functional, cell-based.
Description: Antiproliferative activity against human HCT-116 cells assessed as inhibition of cell proliferation measured after 72 hrs by MTT assay
Assay [2] deals with MCF7. Description: cells. Format: functional, cell-based. Conditions: Homo sapiens, MCF7, 72 h.
Description: Antiproliferative activity against human MCF7 cells assessed as inhibition of cell proliferation measured after 72 hrs by MTT assay
Assay [3] has as its system A549. Description: cells. Format: functional, cell-based. Conditions: Homo sapiens, A549, 72 h.
Description: Antiproliferative activity against human A549 cells assessed as inhibition of cell proliferation measured after 72 hrs by MTT assay
Assay [4] concerns the target T1, Histone deacetylase 1 (Homo sapiens, UniProt Q13547). Particulars: Sf9, dose 100.0 nM, time 75.0 min.
Assay [5] has as its target T2, Hepatocyte growth factor receptor (Homo sapiens, UniProt P08581). Conditions: dose 100.0 nM, time 10.0 min.
In assay [6] the target is T1, Histone deacetylase 1. The assay can be described thus: Inhibition of human C-terminal Flag tagged HDAC1 (1 to 482 residues) expressed in SF9 cells using Ac-peptide substrate preincubated for 15 mins followed by substrate addition and measured after 60 mins by microplate reader method.
In assay [7] the target is T2, Hepatocyte growth factor receptor. The assay can be described thus: Inhibition of c-MET(unknown origin) using FAM labelled peptide substrate preincubated for 10 mins followed by substrate addition and measured by microplate reader method.

T2 sequence (P08581 whole entry, the tested form may be a part): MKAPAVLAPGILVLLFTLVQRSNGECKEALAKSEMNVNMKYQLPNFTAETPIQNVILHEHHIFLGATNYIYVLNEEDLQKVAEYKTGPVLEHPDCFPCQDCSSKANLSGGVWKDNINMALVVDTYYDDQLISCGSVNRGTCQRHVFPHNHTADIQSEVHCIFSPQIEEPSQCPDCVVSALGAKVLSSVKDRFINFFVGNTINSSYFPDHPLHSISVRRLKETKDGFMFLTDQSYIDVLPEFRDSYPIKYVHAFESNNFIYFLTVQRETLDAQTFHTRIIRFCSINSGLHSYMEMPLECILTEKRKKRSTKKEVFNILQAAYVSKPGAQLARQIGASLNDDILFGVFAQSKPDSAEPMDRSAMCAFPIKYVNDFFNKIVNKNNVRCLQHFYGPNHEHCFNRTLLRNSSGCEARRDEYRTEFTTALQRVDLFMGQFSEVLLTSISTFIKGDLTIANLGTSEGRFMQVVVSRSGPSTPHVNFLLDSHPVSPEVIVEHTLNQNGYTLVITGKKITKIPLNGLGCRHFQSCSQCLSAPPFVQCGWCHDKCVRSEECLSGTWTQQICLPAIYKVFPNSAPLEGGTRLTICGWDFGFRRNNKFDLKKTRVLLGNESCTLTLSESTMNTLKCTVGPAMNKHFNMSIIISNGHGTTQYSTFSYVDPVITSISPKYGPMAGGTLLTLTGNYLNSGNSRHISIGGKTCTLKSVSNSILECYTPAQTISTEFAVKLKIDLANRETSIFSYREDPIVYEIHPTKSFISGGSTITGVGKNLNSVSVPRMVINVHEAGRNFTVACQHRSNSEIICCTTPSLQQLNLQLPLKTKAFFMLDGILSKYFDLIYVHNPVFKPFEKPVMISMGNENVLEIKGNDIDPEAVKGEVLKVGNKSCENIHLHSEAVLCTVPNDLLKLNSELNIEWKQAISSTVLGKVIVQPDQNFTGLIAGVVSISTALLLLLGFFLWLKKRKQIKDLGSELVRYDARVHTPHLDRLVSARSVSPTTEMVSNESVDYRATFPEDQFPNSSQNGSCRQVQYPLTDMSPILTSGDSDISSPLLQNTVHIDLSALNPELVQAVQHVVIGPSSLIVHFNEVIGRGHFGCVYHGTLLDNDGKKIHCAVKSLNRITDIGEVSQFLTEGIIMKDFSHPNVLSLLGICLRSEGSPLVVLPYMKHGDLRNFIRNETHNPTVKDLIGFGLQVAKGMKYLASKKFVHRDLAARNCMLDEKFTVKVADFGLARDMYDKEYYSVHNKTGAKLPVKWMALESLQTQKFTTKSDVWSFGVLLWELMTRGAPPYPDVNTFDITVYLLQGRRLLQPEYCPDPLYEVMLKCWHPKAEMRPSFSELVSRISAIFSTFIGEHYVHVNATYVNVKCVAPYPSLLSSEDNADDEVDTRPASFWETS
T1 sequence (Q13547 whole entry): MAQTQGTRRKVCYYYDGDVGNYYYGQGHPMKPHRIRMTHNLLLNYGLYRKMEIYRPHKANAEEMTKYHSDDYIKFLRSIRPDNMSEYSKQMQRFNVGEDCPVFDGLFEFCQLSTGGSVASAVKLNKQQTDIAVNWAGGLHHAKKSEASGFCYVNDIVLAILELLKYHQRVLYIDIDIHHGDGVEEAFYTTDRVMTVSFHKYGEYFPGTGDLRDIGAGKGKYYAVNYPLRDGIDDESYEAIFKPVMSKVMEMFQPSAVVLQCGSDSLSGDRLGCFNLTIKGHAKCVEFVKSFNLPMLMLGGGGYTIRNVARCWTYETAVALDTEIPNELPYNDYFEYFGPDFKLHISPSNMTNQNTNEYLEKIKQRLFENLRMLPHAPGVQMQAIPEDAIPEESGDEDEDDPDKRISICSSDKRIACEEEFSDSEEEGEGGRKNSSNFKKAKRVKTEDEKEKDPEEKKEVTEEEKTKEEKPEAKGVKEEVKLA

For the molecule `COc1cc2c(Oc3ccc(NC(=O)c4nn(-c5cccc(C(F)(F)F)c5)cc(C)c4=O)cc3)ccnc2cc1OCCCCCCC(=O)NO`, the IC50 is 590 nM in assay [1], 750 nM in assay [2] and 780 nM in assay [3]. The inhibition was 35.3% in assay [4] and 46.3% in assay [5].
For `COc1cc2c(Oc3ccc(NC(=O)c4nn(-c5ccccc5)cc(C)c4=O)cc3F)ccnc2cc1OCCCCCC(=O)NO`, in that order: 690 nM, 2330 nM, 4170 nM, 53.3% and 95%.
For `COc1cc2c(Oc3ccc(NC(=O)c4nn(-c5ccccc5C)cc(C)c4=O)cc3)ccnc2cc1OCC(=O)NO`, in that order: 9260 nM, 8780 nM, 5980 nM, “inactive” and 63.5%.
For `COc1cc2c(Oc3ccc(NC(=O)c4nn(-c5ccccc5F)cc(C)c4=O)cc3)ccnc2cc1OCCCC(=O)NO` the same measures were 950 nM, 2650 nM, 3920 nM, 9.2% and 90.8%.
Consider `COc1cc2c(Oc3ccc(NC(=O)c4nn(-c5cccc(C)c5)cc(C)c4=O)cc3)ccnc2cc1OCCCCCCC(=O)NO`, for which the IC50 came to 370 nM in assay [1], 1680 nM in assay [2] and 280 nM in assay [3]. The results for the inhibition in assay [4] and in assay [5] were 62% and 76.5%, respectively.
Consider `CCc1cn(-c2ccccc2)nc(C(=O)Nc2ccc(Oc3ccnc4cc(OCCCCCCC(=O)NO)c(OC)cc34)cc2)c1=O`, for which the IC50 in assay [6] was 34.8 nM; in assay [7], 14.2 nM; in assay [1], 300 nM; in assay [2], 1210 nM; in assay [3], 230 nM. Besides, the figures for the inhibition in assay [4] and in assay [5] were 86.4% and 78.2%, respectively.
`COc1cc2c(Oc3ccc(NC(=O)c4nn(-c5ccc(C)cc5)cc(C)c4=O)cc3)ccnc2cc1OCCCCCCC(=O)NO`: the half-maximal inhibitory concentration (IC50) in assay [1] was 400 nM; in assay [2], 2560 nM; in assay [3], 160 nM. For the same molecule, the inhibition in assay [4] was found to be 47.6%; in assay [5] it was 72.8%.
For `COc1cc2c(Oc3ccc(NC(=O)c4nn(-c5ccccc5C)cc(C)c4=O)cc3)ccnc2cc1OCCCCCCC(=O)NO` the same measures were 660 nM, 1830 nM, 3130 nM, 89.1% and 78.6%.
`COc1cc2c(Oc3ccc(NC(=O)c4nn(-c5ccccc5)cc(C)c4=O)cc3F)ccnc2cc1OCCCN1CCOCC1`: the IC50 in assay [7] stood at 7.42 nM; in assay [1], 370 nM; in assay [2], 630 nM; in assay [3], 1120 nM. The molecule further showed an inhibition in assay [5] of 93.8%.
Consider `COc1cc2c(Oc3ccc(NC(=O)c4nn(-c5ccccc5C)cc(C)c4=O)cc3)ccnc2cc1OCCCCCC(=O)NO`, for which the IC50 in assay [1] was 290 nM; in assay [2], 1830 nM; in assay [3], 1820 nM. Further, the inhibition was found to be 36.9% in assay [4] and 95.7% in assay [5].
For `COc1cc2c(Oc3ccc(NC(=O)c4nn(-c5ccc(F)c(Cl)c5)cc(C)c4=O)cc3)ccnc2cc1OCCCCCCC(=O)NO` the same measures were 370 nM, 2200 nM, 380 nM, 40% and 61.1%.
For `COc1cc2c(Oc3ccc(NC(=O)c4nn(-c5ccccc5F)cc(C)c4=O)cc3F)ccnc2cc1OCCCC(=O)NO` the same measures were 1120 nM, 2100 nM, 1370 nM, 7.1% and 94%.
For `COc1cc2c(Oc3ccc(NC(=O)c4nn(-c5ccc(C)cc5C)cc(C)c4=O)cc3)ccnc2cc1OCCCCCCC(=O)NO`, in that order: 440 nM, 2430 nM, 1840 nM, 65.3% and 63.8%.
As to `COc1cc2c(Oc3ccc(NC(=O)c4nn(-c5ccccc5)cc(C)c4=O)cc3)ccnc2cc1OCCCCCCC(=O)NO`, the half-inhibitory concentration (IC50) is 34 nM in assay [6]; 19.9 nM in assay [7]; 150 nM in assay [1]; 1610 nM in assay [2]; 420 nM in assay [3]. Besides, the inhibition in assay [4] was 86.6%; in assay [5] it was 88.6%.
With `COc1cc2c(Oc3ccc(NC(=O)c4nn(-c5ccccc5C)cc(C)c4=O)cc3F)ccnc2cc1OCCCC(=O)NO`, the half-maximal inhibitory concentration (IC50) in assay [1] came out at 2040 nM; in assay [2], 2600 nM; in assay [3], 2090 nM. The inhibition in assay [4] amounted to 8%; in assay [5] it was 95.5%.
As for `O=C(CCCCCCC(=O)Nc1ccccc1)NO`, the inhibition in assay [5] was 2.8%.
`COc1cc2c(Oc3ccc(NC(=O)c4nn(-c5ccccc5C)cc(C)c4=O)cc3)ccnc2cc1OCCCC(=O)NO`: the IC50 in assay [1] was 640 nM; in assay [2] it was 1600 nM; in assay [3] it was 4460 nM. In addition, the inhibition came to 10.7% in assay [4] and 98.5% in assay [5].
For `COc1cc2c(Oc3ccc(NC(=O)c4nn(-c5ccccc5F)cc(C)c4=O)cc3F)ccnc2cc1OCCCCCC(=O)NO`, in that order: 590 nM, 2320 nM, 1320 nM, 61.1% and 89.1%.
In the case of `COc1cc2c(Oc3ccc(NC(=O)c4nn(-c5ccccc5)ccc4=O)cc3)ccnc2cc1OCCCC(=O)NO`, the IC50 in assay [1] is 940 nM; in assay [2], 7410 nM; in assay [3], 9260 nM. The results for the inhibition in assay [4] and in assay [5] were 12.6% and 96.4%, respectively.
For `COc1cc2c(Oc3ccc(NC(=O)c4nn(-c5ccccc5C(F)(F)F)ccc4=O)cc3)ccnc2cc1OCC(=O)NO`, in that order: 9500 nM, 6320 nM, greater than 20000 nM, 1.2% and 56.3%.
For `COc1cc2c(Oc3ccc(NC(=O)c4nn(-c5ccccc5C)ccc4=O)cc3)ccnc2cc1OCCCCCC(=O)NO`, in that order: 700 nM, 4360 nM, 3920 nM, 62.1% and 90.4%.
In the case of `COc1cc2c(Oc3ccc(NC(=O)c4nn(-c5ccccc5)cc(C)c4=O)cc3F)ccnc2cc1OCCCC(=O)NO`, the IC50 worked out at 660 nM in assay [1], 1900 nM in assay [2] and 1900 nM in assay [3]. For the same molecule, the inhibition in assay [4] is 2.5%; in assay [5], 98.3%.
Consider `COc1cc2nccc(Oc3ccc(NC(=O)C4(C(=O)Nc5ccc(F)cc5)CC4)cc3)c2cc1OC` [CABOZANTINIB], for which the half-maximal inhibitory concentration (IC50) in assay [1] was 4670 nM; in assay [2] it was 5980 nM; in assay [3], 7800 nM.
For the molecule `COc1cc2c(Oc3ccc(NC(=O)c4nn(-c5ccc(Cl)c(C(F)(F)F)c5)cc(C)c4=O)cc3)ccnc2cc1OCC(=O)NO`, the values for the IC50 in assay [1], in assay [2] and in assay [3] were 350 nM, 3480 nM and 1590 nM, respectively. Further, the values for the inhibition in assay [4] and in assay [5] were 5.2% and 50.2%, respectively.
For `COc1cc2c(Oc3ccc(NC(=O)c4nn(-c5ccccc5C)ccc4=O)cc3F)ccnc2cc1OCCCC(=O)NO` the same measures were 3980 nM, 3200 nM, 5740 nM, 6% and 93.5%.
